The subject of test [1] is Plasmodium falciparum. The experiment in a line: Antiplasmodial activity against erythrocytic stage chloroquine resistant Plasmodium falciparum dD2 assessed as parasitic growth inhibition measured after 3 days by HRP2-ELISA assay. The class given is functional, organism-based. Conditions: dD2, 72 h. (In general: ELISA stands for enzyme-linked immunosorbent assay.)
For test [2], the system named is Plasmodium falciparum. The experiment in a line: Antiplasmodial activity against erythrocytic stage chloroquine sensitive Plasmodium falciparum 3D7 assessed as parasitic growth inhibition measured after 3 days by HRP2-ELISA assay. The class given is functional, organism-based. The following applies: 3D7, 72 h.

Some results are limits rather than exact numbers.

Turning to `CC(C)(O)[C@H]1O[C@@]2(O)CC[C@@]3(C)[C@@H](CC[C@H]4Cc5c([nH]c6ccccc56)[C@@]43C)C2=CC1=O`, the IC50 (usually the concentration needed to halve the response being measured) in the test on Plasmodium falciparum [1] is 153 µM; in the test with Plasmodium falciparum [2], 1.1 µM.
In the case of `CC(C)C1=C(c2c[nH]c3ccccc23)[C@@H]2[C@H](C)C[C@@H](O)[C@@]3(C)[C@H](C)CC[C@@H](O)[C@@]23CC1`, the IC50 in the test with Plasmodium falciparum [2] worked out at 52 µM.
Same read-out and setting: the result for `C[C@H](CO)C1=C(c2c[nH]c3ccccc23)[C@@H]2[C@H](C)C[C@@H](O)[C@@]3(C)[C@H](C)CC[C@@H](O)[C@@]23CC1` reads 26 µM; that for `CC1=CC[C@@H](O)[C@@]23CC=C(C(C)C)[C@H](c4c[nH]c5ccccc45)[C@@H]2[C@H](C)CC[C@@]13C`, 20 µM.
Consider `C=CC(C)(C)c1cccc2[nH]c3c(c12)C[C@@H]1CC[C@H]2C4=CC(=O)[C@@H](C(C)(C)O)O[C@H]4CC[C@]2(C)[C@@]31C`, for which the IC50 with Plasmodium falciparum [1] was 41 µM; in the test on Plasmodium falciparum [2], 0.84 µM.
Turning to `CC(C)C1=CC[C@]23[C@@H]([C@H](C)CC[C@@]2(C)[C@H](C)CC[C@H]3O)[C@H]1c1c[nH]c2ccccc12`, in the test with Plasmodium falciparum [2], the half-maximal inhibitory concentration (IC50) came out at 31 µM.
As for `C[C@@H]1CC[C@@]2(C)[C@H](C)CC[C@@H](O)[C@]23CC[C@@H](C(C)(C)O)[C@H](c2c[nH]c4ccccc24)[C@H]13`, the IC50 in the test on Plasmodium falciparum [2] is above 200 µM.
The same measure, in the same setting: for `Cc1cc2[nH]c3ccccc3c2c2c1CC[C@@]13[C@H](O)CC[C@@H](C)[C@]1(C)[C@H](O)C[C@@H](C)[C@@H]23` the value was 49 µM.
For `CC(C)C1=C(c2c[nH]c3ccccc23)[C@@H]2[C@H](C)CC[C@@]3(C)[C@H](C)CC[C@@H](O)[C@@]23CC1`, the IC50 is above 200 µM in the test on Plasmodium falciparum [1] and 2.8 µM in the test on Plasmodium falciparum [2].
`C=CC(C)(C)c1cccc2[nH]c3c(c12)C[C@@H]1CC(=O)[C@@]2(O)C4=CC(=O)[C@@H](C(C)(C)O)O[C@]4(O)CC[C@]2(C)[C@@]31C`: in the test with Plasmodium falciparum [2], the IC50 turned out to be 57 µM.
`C=CC(C)(C)c1ccc2[nH]c3c(c2c1)C[C@@H]1CC[C@H]2C4=CC(=O)[C@@H](C(C)(C)O)O[C@H]4CC[C@]2(C)[C@@]31C`: the concentration for half-maximal inhibition (IC50) in the test on Plasmodium falciparum [1] worked out at 96 µM; in the test with Plasmodium falciparum [2], 1.3 µM.
For the compound `C=CC(C)(C)c1cccc2[nH]c3c(c12)C[C@@H]1CC[C@@]2(O)C4=CC(=O)[C@@H]5O[C@@]4(CC[C@]2(C)[C@@]31C)OC5(C)C` [AFLATREME], the half-maximal inhibitory concentration (IC50) with Plasmodium falciparum [2] was above 200 µM.
As to `C[C@@H]1CC[C@H]2[C@@H](C)C(=O)O[C@@H]3O[C@@]4(C)CC[C@@H]1[C@]32OO4` [ARTEMISININ], the IC50 in the test with Plasmodium falciparum [1] was determined as 12 µM; with Plasmodium falciparum [2], 0.013 µM.
For `CC(C)(O)[C@H]1O[C@H]2CC[C@@]3(C)[C@@H](CC[C@H]4Cc5c([nH]c6ccccc56)[C@@]43C)C2=CC1=O` [DEHYDROXYPAXILLINE] the same measures were 69 µM and 0.9 µM.
For `CC(C)=CCC[C@]1(C)[C@@H](O)CC[C@@]2(C)[C@H]1CC[C@H]1Cc3c([nH]c4ccccc34)[C@@]12C` [EMINDOLE SB] the same measures were 34 µM and 2.9 µM.
For `CC(C)(O)[C@@H]1CC[C@]2(C)[C@H](CC[C@@]3(C)[C@H]2CC[C@H]2Cc4c([nH]c5ccccc45)[C@@]23C)O1` [PASPALINE] the same measures were above 200 µM and 2.2 µM.

The record behind these values is ChEMBL document CHEMBL5370559, “Plasmodium-Resistant Indole Diterpenoid Biosynthesis Gene Cluster Derived from Aspergillus oryzae Was Activated by Exogenous P450 Gene Ast B” (J Nat Prod, 2023).
